Data published in patent US8815535B2, “Disk diffusion assay for oritavancin” (The Medicines Company, priority 2011, dated 2014).
Values after ≈ are worked out from the molar mass of the structure shown.

How the values were obtained:
MRSA Q670505 [1] = test: Disk diffusion assay (zone of inhibition); assay type: cell-based, Staphylococcus aureus; conditions: 20 μl of 1.25 mg/ml in 4% P80/Span 80 (1:1), calcium alginate swabs, dried overnight, duplicate
Method: (§1) Oritavancin powder was dissolved in freshly-prepared solutions of the indicated excipients at concentrations of 0.625, 1.25, 2.5, 5, and 10 mg/ml (adjusted for potency based on lot 875561L00 purity of 83.1%) by vortexing for a minimum of 5 minutes. Oritavancin solutions in the various excipients, while not visually clear, were free from any apparent particulates as assessed visually. Sterile Oxoid blank disks were impregnated with 20 μl of these oritavancin solutions, resulting in oritavancin disk loads ranging from 12.5 to 200 μg. Unless indicated otherwise, disks were allowed to dry overnight at room temperature prior to use.
(§2) Bacterial suspensions from isolated colonies on overnight cation-adjusted Mueller Hinton agar plates were prepared in sterile saline and adjusted to an optical density of 0.1 at 600 nm Standard cation-adjusted Mueller Hinton agar plates (90 mm diameter) were seeded with bacterial suspensions by initially swabbing the center of plate then moving outward. Swabbing was continued at a right angle and then at an oblique angle to the first and second swabs. Disks were placed upon the seeded plates with sterile forceps. Plates were then incubated overnight at 37° C. and inhibition zone diameters were measured with a ruler and reported in millimeters.

hVISA NRS36 [2] = test: Disk diffusion assay (zone of inhibition); assay type: cell-based, Staphylococcus aureus; conditions: 25 μg (1.25 mg/ml) in 4% P80/Span 80 (1:1), dried overnight
Method: as §1, §2

MRSA ATCC 33591 = test: Broth microdilution (BMD) MIC; assay type: cell-based; conditions: Staphylococcus aureus, read-out: Oritavancin BMD MIC
From the text: (§3) To date, only the broth microdilution (BMD) minimal inhibitory concentration (MIC) test is a reference method accepted by the Clinical Laboratory Standards Institute (CLSI) for use in determining the susceptibility of a bacterial isolate to oritavancin (Methods for Dilution Antimicrobial Susceptibility Tests for Bacteria That Grow Aerobically; Approved Standard, CLSI document M7-A8, 8th ed. Clinical and Laboratory Standards Institute, Wayne, Pa. 2009; Performance Standards for Antimicrobial Susceptibility Testing; Eighteenth Informational Supplement, CLSI document M100-S18, 7th ed. Clinical and Laboratory Standards Institute, Wayne, Pa. 2008).

MRSA NRS121-ORI^RS = test: Broth microdilution (BMD) MIC; assay type: cell-based; conditions: Staphylococcus aureus; MRSA NRS121-ORI^RS (oritavancin reduced-susceptibility isolate)
From the text: as §3

MRSA NRS121 = test: Broth microdilution (BMD) MIC; assay type: cell-based; conditions: Staphylococcus aureus, read-out: Oritavancin BMD MIC
From the text: as §3

MRSA NRS123-ORI^RS = test: Broth microdilution (BMD) MIC; assay type: cell-based; conditions: Staphylococcus aureus; MRSA NRS123-ORI^RS (oritavancin reduced-susceptibility isolate)
From the text: as §3

MRSA NRS123 = test: Broth microdilution (BMD) MIC; assay type: cell-based; conditions: Staphylococcus aureus, read-out: Oritavancin BMD MIC
From the text: as §3

MRSA Q141067 = test: Broth microdilution (BMD) MIC; assay type: cell-based; conditions: Staphylococcus aureus, read-out: Oritavancin BMD MIC
From the text: as §3

MRSA Q670505 [3] = test: Broth microdilution (BMD) MIC; assay type: cell-based; conditions: Staphylococcus aureus, read-out: Oritavancin BMD MIC
From the text: as §3

MRSA Q670607 = test: Broth microdilution (BMD) MIC; assay type: cell-based; conditions: Staphylococcus aureus, read-out: Oritavancin BMD MIC
From the text: as §3

MRSA T998528 = test: Broth microdilution (BMD) MIC; assay type: cell-based; conditions: Staphylococcus aureus, read-out: Oritavancin BMD MIC
From the text: as §3

MRSA T998608 = test: Broth microdilution (BMD) MIC; assay type: cell-based; conditions: Staphylococcus aureus, read-out: Oritavancin BMD MIC
From the text: as §3

MRSA U206056 = test: Broth microdilution (BMD) MIC; assay type: cell-based; conditions: Staphylococcus aureus, read-out: Oritavancin BMD MIC
From the text: as §3

MRSA U260847 = test: Broth microdilution (BMD) MIC; assay type: cell-based; conditions: Staphylococcus aureus, read-out: Oritavancin BMD MIC
From the text: as §3

MRSA U784439 = test: Broth microdilution (BMD) MIC; assay type: cell-based; conditions: Staphylococcus aureus, read-out: Oritavancin BMD MIC
From the text: as §3

MRSA U933237 = test: Broth microdilution (BMD) MIC; assay type: cell-based; conditions: Staphylococcus aureus, read-out: Oritavancin BMD MIC
From the text: as §3

MRSA V257345 = test: Broth microdilution (BMD) MIC; assay type: cell-based; conditions: Staphylococcus aureus, read-out: Oritavancin BMD MIC
From the text: as §3

MRSA V288615 = test: Broth microdilution (BMD) MIC; assay type: cell-based; conditions: Staphylococcus aureus, read-out: Oritavancin BMD MIC
From the text: as §3

MRSA V406957 = test: Broth microdilution (BMD) MIC; assay type: cell-based; conditions: Staphylococcus aureus, read-out: Oritavancin BMD MIC
From the text: as §3

MSSA ATCC 29213 = test: Broth microdilution (BMD) MIC; assay type: cell-based; conditions: Staphylococcus aureus, read-out: Oritavancin BMD MIC
From the text: as §3

MSSA Q141066 = test: Broth microdilution (BMD) MIC; assay type: cell-based; conditions: Staphylococcus aureus, read-out: Oritavancin BMD MIC
From the text: as §3

MSSA S815246 = test: Broth microdilution (BMD) MIC; assay type: cell-based; conditions: Staphylococcus aureus, read-out: Oritavancin BMD MIC
From the text: as §3

MSSA S815247 = test: Broth microdilution (BMD) MIC; assay type: cell-based; conditions: Staphylococcus aureus, read-out: Oritavancin BMD MIC
From the text: as §3

MSSA T759545 = test: Broth microdilution (BMD) MIC; assay type: cell-based; conditions: Staphylococcus aureus, read-out: Oritavancin BMD MIC
From the text: as §3

MSSA T811355 = test: Broth microdilution (BMD) MIC; assay type: cell-based; conditions: Staphylococcus aureus, read-out: Oritavancin BMD MIC
From the text: as §3

MSSA T972018 = test: Broth microdilution (BMD) MIC; assay type: cell-based; conditions: Staphylococcus aureus, read-out: Oritavancin BMD MIC
From the text: as §3

MSSA U148267 = test: Broth microdilution (BMD) MIC; assay type: cell-based; conditions: Staphylococcus aureus, read-out: Oritavancin BMD MIC
From the text: as §3

MSSA U781969 = test: Broth microdilution (BMD) MIC; assay type: cell-based; conditions: Staphylococcus aureus, read-out: Oritavancin BMD MIC
From the text: as §3

MSSA U933236 = test: Broth microdilution (BMD) MIC; assay type: cell-based; conditions: Staphylococcus aureus, read-out: Oritavancin BMD MIC
From the text: as §3

MSSA V406985 = test: Broth microdilution (BMD) MIC; assay type: cell-based; conditions: Staphylococcus aureus, read-out: Oritavancin BMD MIC
From the text: as §3

VISA Mu50 (ATCC 700699) = test: Broth microdilution (BMD) MIC; assay type: cell-based; conditions: Staphylococcus aureus; VISA ATCC 700699 (Mu50); read-out: Oritavancin BMD MIC
From the text: as §3

VISA NRS3 = test: Broth microdilution (BMD) MIC; assay type: cell-based; conditions: Staphylococcus aureus, read-out: Oritavancin BMD MIC
From the text: as §3

VISA NRS402 = test: Broth microdilution (BMD) MIC; assay type: cell-based; conditions: Staphylococcus aureus, read-out: Oritavancin BMD MIC
From the text: as §3

hVISA NRS2 = test: Broth microdilution (BMD) MIC; assay type: cell-based; conditions: Staphylococcus aureus, read-out: Oritavancin BMD MIC
From the text: as §3

hVISA NRS36 [4] = test: Broth microdilution (BMD) MIC; assay type: cell-based; conditions: Staphylococcus aureus, read-out: Oritavancin BMD MIC
From the text: as §3

CN[C@H](CC(C)C)C(=O)N[C@H]1C(=O)N[C@@H](CC(N)=O)C(=O)N[C@H]2C(=O)N[C@H]3C(=O)N[C@H](C(=O)N[C@H](C(=O)O)c4cc(O)cc(O)c4-c4cc3ccc4O)[C@H](O[C@H]3C[C@](C)(N)[C@@H](O)[C@H](C)O3)c3ccc(c(Cl)c3)Oc3cc2cc(c3O[C@@H]2O[C@H](CO)[C@@H](O)[C@H](O)[C@H]2O[C@H]2C[C@](C)(NCc3ccc(-c4ccc(Cl)cc4)cc3)[C@@H](O)[C@H](C)O2)Oc2ccc(cc2Cl)[C@H]1O [oritavancin, N-(4-(4-chlorophenyl)benzyl)A82846B]
Inhibition zone diameter (MRSA Q670505 [1]): 18, 18 mm | zone of inhibition at 1250 µg/mL (MRSA Q670505 [1]; Staphylococcus aureus, MRSA, read-out: Inhibition zone diameter): 18 mm | Inhibition zone diameter (hVISA NRS36 [2]; NRS36): 12 mm | zone of inhibition at 25 µg/disc (hVISA NRS36 [2]; Staphylococcus aureus, NRS36, read-out: Inhibition zone diameter, NRS36): 11 mm | MIC (MRSA ATCC 33591): 0.06 µg/mL (≈ 0.0335 µM) | MIC (MRSA NRS121-ORI^RS): 0.5 µg/mL (≈ 0.279 µM) | MIC (MRSA NRS121): 0.06 µg/mL (≈ 0.0335 µM) | MIC (MRSA NRS123-ORI^RS): 0.25 µg/mL (≈ 0.139 µM) | MIC (MRSA NRS123): 0.03 µg/mL (≈ 0.0167 µM) | MIC (MRSA Q141067): 0.015 µg/mL (≈ 0.00837 µM) | MIC (MRSA Q670505 [3]): 0.25 µg/mL (≈ 0.139 µM) | MIC (MRSA Q670607): 0.03 µg/mL (≈ 0.0167 µM) | MIC (MRSA T998528): 0.015 µg/mL (≈ 0.00837 µM) | MIC (MRSA T998608): 0.03 µg/mL (≈ 0.0167 µM) | MIC (MRSA U206056): 0.25 µg/mL (≈ 0.139 µM) | MIC (MRSA U260847): 0.06 µg/mL (≈ 0.0335 µM) | MIC (MRSA U784439): 0.03 µg/mL (≈ 0.0167 µM) | MIC (MRSA U933237): 0.12 µg/mL (≈ 0.0669 µM) | MIC (MRSA V257345): 0.12 µg/mL (≈ 0.0669 µM) | MIC (MRSA V288615): 0.03 µg/mL (≈ 0.0167 µM) | MIC (MRSA V406957): 0.12 µg/mL (≈ 0.0669 µM) | MIC (MSSA ATCC 29213): 0.06 µg/mL (≈ 0.0335 µM) | MIC (MSSA Q141066): 0.03 µg/mL (≈ 0.0167 µM) | MIC (MSSA S815246): 0.03 µg/mL (≈ 0.0167 µM) | MIC (MSSA S815247): 0.015 µg/mL (≈ 0.00837 µM) | MIC (MSSA T759545): 0.015 µg/mL (≈ 0.00837 µM) | MIC (MSSA T811355): 0.03 µg/mL (≈ 0.0167 µM) | MIC (MSSA T972018): 0.5 µg/mL (≈ 0.279 µM) | MIC (MSSA U148267): 0.015 µg/mL (≈ 0.00837 µM) | MIC (MSSA U781969): 0.03 µg/mL (≈ 0.0167 µM) | MIC (MSSA U933236): 0.06 µg/mL (≈ 0.0335 µM) | MIC (MSSA V406985): 0.12 µg/mL (≈ 0.0669 µM) | MIC (VISA Mu50 (ATCC 700699)): 1 µg/mL (≈ 0.558 µM) | MIC (VISA NRS3): 1 µg/mL (≈ 0.558 µM) | MIC (VISA NRS402): 1 µg/mL (≈ 0.558 µM) | MIC (hVISA NRS2): 0.25 µg/mL (≈ 0.139 µM) | MIC (hVISA NRS36 [4]): 1 µg/mL (≈ 0.558 µM)
